# Key:
# [1] = system: nicotine-stimulated release of acetylcholine (ACh); test: nicotine-stimulated release of acetylcholine
# Source text: (§1) Experiments have shown that ST101 potentiates nicotine-stimulated release of acetylcholine (ACh), increases extracellular ACh concentrations in the cerebral cortex, and increases extracellular concentrations of both ACh and dopamine in the hippocampus.
# [2] = system: rodent models of learning and memory; settings: cited from earlier work
# [3] = known from other studies; cited from earlier work
# [4] = system: Senescence Accelerated Mouse P8 (SAMP8); settings: cited from earlier work
# [5] = system: extracellular ACh and dopamine in cerebral cortex and hippocampus; test: extracellular neurotransmitter concentrations in brain; assay type: in vivo
# Source text: as §1
# [6] = system: rodent models of learning and memory; test: rodent models of learning and memory (age-impaired memory, chemical amnesic agents); assay type: in vivo; settings: after both acute (single-dose) and chronic administration
# Source text: The chemical name for ST101 is spiro(imidazo(1,2-a)pyridin-2(3H)-one-3,2′-indan).
# (Yamaguchi Y., et al., J. Pharmacol. Exp. Ther. 317:1079-87 (2006); Ito Y., et al., J. Pharmacol. Exp. Ther. 320: 819-27 (2007)).
smiles,measurement,setting,value
"O=C1N=C2C=CC=CN2C12Cc1ccccc1C2 [ST101, spiro(imidazo(1,2-a)pyridin-2(3H)-one-3,2′-indan)]",nicotine-stimulated release of acetylcholine (ACh),[1],potentiates
same,memory deficits induced by methamphetamine,[2]; chemical amnesic agent methamphetamine,attenuates
same,memory deficits induced by MK-801,[2]; glutamate receptor antagonist MK-801,attenuates
same,age-impaired memory,[2]; in vivo,significantly improves
same,memory deficits induced by scopolamine,[2]; muscarinic antagonist scopolamine,attenuates
same,neuroprotective activity,[3],has neuroprotective activity
same,accumulation of Aβ-like deposits,[4]; SAMP8 mouse brain tissue,decreased
same,learning and memory functions,[4]; SAMP8 mouse,improvement
same,extracellular ACh concentrations,[5]; cerebral cortex,increases
same,extracellular concentration of ACh,[5]; hippocampus,increases
same,extracellular concentration of dopamine,[5]; hippocampus,increases
same,pharmacological activity in rodent models of learning and memory relevant to AD,[6],has shown pharmacological activity
